Results: BindingDB's records for doi:10.1021/acs.jmedchem.6b00948 (Fimbrion Therapeutics, 2016)

Test: Inhibition of Escherichia coli UTI89 FimH-mediated biofilm formation after 48 hrs by crystal violet staining-based assay
For CNC(=O)c1cccc(-c2ccc([C@H](O)[C@H]3O[C@H](CO)[C@@H](O)[C@H](O)[C@@H]3O)cc2)c1, the IC50 was 38000 nM. Work on Cc1cc(-c2cccc3cnccc23)ccc1[C@@H](O)[C@H]1O[C@H](CO)[C@@H](O)[C@H](O)[C@@H]1O yielded an IC50 of 600 nM. CNC(=O)c1cccc(-c2ccc([C@@H](O)[C@H]3O[C@H](CO)[C@@H](O)[C@H](O)[C@@H]3O)c(C)c2)c1 gave an IC50 of 80 nM. In the case of Cc1cc(-c2ccc3ccnc(N)c3c2)ccc1[C@@H](O)[C@H]1O[C@H](CO)[C@@H](O)[C@H](O)[C@@H]1O, the IC50 is reported as 40 nM. In the case of Cc1cc(-c2cccc3cnccc23)ccc1O[C@H]1O[C@H](CO)[C@@H](O)[C@H](O)[C@@H]1O, the IC50 is reported as 140 nM. With Cc1cc(-c2ccc3cc[nH]c(=O)c3c2)ccc1[C@@H](O)[C@H]1O[C@H](CO)[C@@H](O)[C@H](O)[C@@H]1O the IC50 was 30 nM. Work on CNC(=O)c1cccc(-c2ccc([C@H](O)[C@H]3O[C@H](CO)[C@@H](O)[C@H](O)[C@@H]3O)c(C)c2)c1 yielded an IC50 of 11000 nM. With Cc1cc(-c2ccc3ccnc(N)c3c2)ccc1O[C@H]1O[C@H](CO)[C@@H](O)[C@H](O)[C@@H]1O the IC50 was 340 nM. In the case of Cc1cc(-c2ccc3c(c2)C(=O)NCC3)ccc1[C@@H](O)[C@H]1O[C@H](CO)[C@@H](O)[C@H](O)[C@@H]1O, the IC50 is reported as 40 nM. In the case of CNC(=O)c1cccc(-c2ccc(O[C@H]3O[C@H](CO)[C@@H](O)[C@H](O)[C@@H]3O)c(C)c2)c1, the IC50 is reported as 150 nM. With Cc1cc(-c2ccc3cc[nH]c(=O)c3c2)ccc1O[C@H]1O[C@H](CO)[C@@H](O)[C@H](O)[C@@H]1O the IC50 was 130 nM. Work on Cc1cc(-c2ccc3c(c2)C(=O)NCC3)ccc1O[C@H]1O[C@H](CO)[C@@H](O)[C@H](O)[C@@H]1O yielded an IC50 of 250 nM. Molecule CNC(=O)c1cccc(-c2ccc([C@@H](O)[C@H]3O[C@H](CO)[C@@H](O)[C@H](O)[C@@H]3O)cc2)c1 has an IC50 of 900 nM. Molecule CNC(=O)c1cccc(-c2ccc(O[C@H]3O[C@H](CO)[C@@H](O)[C@H](O)[C@@H]3O)cc2)c1 has an IC50 of 1350 nM.
